{"source": "patent US20240415919A1", "about": "“COMPOSITIONS AND METHODS FOR TREATMENT OF AUTOIMMUNE DISORDERS AND CANCER” (Dana-Farber Cancer Institute, Inc., priority 2021, published 2024)", "key": {"[1]": {"system": "FL9.2 T cells", "test": "FL9 peptide immunization of hosts adoptively transferred with FL9.2 T cells", "assay_type": "in vivo, mouse", "details": "i.p. immunization with peptide in CFA; CD45.1+ B6 or TCRα-/- hosts", "protocol": "CD45.1+B6 hosts were adoptively transferred with FL9.2 T cells and immunized i.p. with FL9 in CFA or no peptide (CFA alone) on day 0. Three days later, activation (CD69) proliferation of FL9.2 T cells (Ki67) was measured.\n(§1) CD45.1^+ B6 or TCRα^−/− mice were transferred with CFSE labelled 2×10^6 FL9.2 Tg T cells followed by i.p. immunization with 100 μg FL9 or FL9-68 peptides in CFA. Proliferation and activation of FL9.2 Tg T cells in the adoptive hosts were analzyed by assessing CFSE dilution, Ki67 and CD69 expression at day 3 and 6 after transfer.\nas §1, with “CD45.1^+B6” for “CD45.1^+ B6”"}, "[2]": {"system": "MCMV", "test": "Murine MCMV infection model with FL9-68 vaccination", "assay_type": "in vivo, mouse", "protocol": "FIG. 10A-C provides a graphical representation showing FL9-68-dependent mobilization of CD8 Treg dampens autoantibody responses during MCMV infection. WT B6 mice were infected with MCMV (2×10^5 pfu) and vaccinated with (100 ug/dose) FL9-68 in IFA or IFA alone at day 0, 8 and 12. Mice were bled at day 3, 10 and 18 and levels of anti-dsDNA Ab (panel A), viral titer (panel B) and frequency of activated CD8 Treg (panel C, Ly49+NKG2D+CD8) are shown."}, "[3]": {"system": "EL4 tumor cells (Qa-1+)", "test": "EL4 tumor growth in B6 mice", "assay_type": "in vivo, mouse", "details": "EL4 (Qa-1 WT) in B6 mice; vs isotype control / IFA alone; listed as FL9-68 SA", "protocol": "FIG. 9A-B provides a graphical representation showing that the depletion of CD8 Treg enhances anti-tumor immune responses. WT B6 mice were inoculated with 2×10^5 EL4 (Qa-1 WT) orEL4-Qa-1 KO cells. Mice received EL4 WT or EL4 Qa-1 KO cells were treated with four different conditions: 1) PBS/IFA+ isotype control Ab (mIgG1), 2) PBS/IFA+ anti-Ly49F Ab, 3) PBS/IFA+anti-Qa-1 Ab and 4) FL9.68/IFA+isotype Ab (mIgG1). 100 ug of FL9.68 peptide (day 0 and day 10), 50 ug of anti-Ly49F Ab and 100 ug of anti-Qa-1 Ab (day 0, 3 and 6) were injected respectively. A) Status of Ly49+CD8 cells in the blood at day 3 and 6 after tumor induction (panel A). Tumor growth in mice inoculated with EL4 WT (left) andEL4 Qa-1 KO (right) tumor cells until day 7. […] This effect was not observed in mice inoculated with EL4-Qa-1KO tumor cells (panel B)."}, "[4]": {"system": "FL9 T cells", "test": "In vitro FL9 T cell proliferation and killing of activated CD4 cells", "assay_type": "cell-based"}}, "note": "Entries after “also recorded” stand apart in the source; their conditions may differ.", "data": [{"sequence": "FYAEATLML [FL9-68, FL9 peptide variant containing a P→L substitution at pos 7; superagonist for CD8 Treg]", "values": [{"measurement": "in vivo activation/proliferation of transferred FL9 TCR+ CD8 T cells", "setting": "[1]", "value": "activated FL9 TCR^+ CD8 T cells; also recorded: activates FL9 T cells in vivo"}, {"measurement": "NKG2D+Ly49+ CD8 T cells (activated CD8 Treg)", "setting": "[2]; mouse, in vivo", "value": "increase of NKG2D+Ly49^+ CD8 T cells"}, {"measurement": "production of anti-dsDNA Ab", "setting": "[2]; vaccination at days 0, 8 and 12 after viral infection", "value": "significantly reduced production of anti-dsDNA Ab"}, {"measurement": "EL4 tumor growth", "setting": "[3]", "value": "facilitated tumor growth"}, {"measurement": "proliferation of FL9 T cells and killing of activated CD4 cells", "setting": "[4]", "value": "promoted proliferation of FL9 T cells leading to enhanced killing of activated CD4 cells"}]}]}
